Measured values as given in patent US7910568B2, “Derivatives of 4- or 5-aminosalicylic acid” (Antibe Therapeutics Inc., priority 2005, dated 2011).

Key:
[1] = system: TNBS-induced colitis; experiment: TNBS-induced colitis in mice, disease activity score; assay type: in vivo
Method: A standard experimental animal model of colitis induced by intracolonic administration of 2,4,6-trinitrobenzene sulfonic acid (TNBS) to mice is used in the following example. A detailed description of this model has been published (Santucci et al. (2003) Gastroenterology 124:1381-94) and is incorporated herein by reference. Briefly, 6-8 week old Balb/c mice were given TNBS intracolonically at a dose of 1.5 mg in 0.1 mL of 30% ethanol. The mice were randomized to the various treatment groups (n=6 per group). Beginning one hour later and continuing every 12 h for 5 days, the mice were treated orally with vehicle (1% carboxymethylcellulose (CMC)), 5-ASA (mesalamine) (25, 50 or 75 mg/kg) or with equimolar doses of 2-hydroxy-5-amino-benzoic acid 4-(thioxo-5H-[1,2]dithiol-3-yl)-phenyl ester hydrochloride (Compound XXXV) (130 mg/kg), or with […] (100 mg/kg), 50% (66 mg/kg) and 25% (33 mg/kg) of that dose. The mice were evaluated (blindly) on the final day of the study for the presence of diarrhea and fecal occult blood, and their body weights were measured. […] After sacrifice, a sample of the colon was excised for measurement of myeloperoxidase (MPO) activity, as a marker of granulocyte infiltration. All results were compared to those obtained with healthy mice as well.

[2] = system: IL-10 mRNA; experiment: TNBS-induced colitis in mice, colonic IL-10 mRNA by RT-PCR; assay type: in vivo; conditions: dose equimolar to 50 mg/kg mesalamine; normalized to GAPDH, ratio to healthy controls
Method: (§1) The same model was used as described above. In this example, the effects of mesalamine (50 mg/kg) were compared to those of equimolar doses of Compound XXXV. In addition to measuring the severity of colitis by measuring disease activity score and MPO activity, tissues were processed for measurement of a number of genes for inflammatory cytokines and other mediators.
(§2) In particular, mRNA expression in mice of tumour necrosis factor-alpha (TNF-α), interferon gamma (IFN-γ), colonic interleukin (IL)-1, IL-2, IL-10, IL-12 p40, RANTES, cyclooxygenase (COX)-1, COX-2, constitutive endothelial nitric oxide synthase (eNOS), and inducible NOS (iNOS) was measured as described in Wallace et al. (1999) Gastroenterology 117: 557-566, incorporated herein by reference.
(§3) Briefly, reverse transcription-polymerase chain reaction (RT-PCR) was used to detect and quantify mRNA of the particular cytokine/chemokine/enzyme. Glyceraldehyde-3-phosphate dehydrogenase (GAPDH) was used as the “housekeeping gene” for mRNA expression (i.e., as an internal control). For each sample, the ratio of the amplification of the target gene to the amplification of GAPDH (expression of each is measured by performing densitometry on gels) was obtained. […]

[3] = system: COX-2 mRNA; experiment: TNBS-induced colitis in mice, colonic COX-2 mRNA by RT-PCR; assay type: in vivo; conditions: dose equimolar to 50 mg/kg mesalamine; FIG. 13
Method: as §1, §2, §3

[4] = system: eNOS mRNA; experiment: TNBS-induced colitis in mice, colonic eNOS mRNA by RT-PCR; assay type: in vivo; conditions: dose equimolar to 50 mg/kg mesalamine; FIG. 14
Method: as §1, §2, §3

[5] = Viability of HT-29 human colon cancer cells, MTT assay; assay type: cell-based; conditions: HT-29 colon cancer cells, 72 h exposure, HT-29, MTT, read-out: Cell viability rate as a percent of the vehicle (DMSO)-treated cells
Method: HT-29 cells were grown in culture using standard methods. The cells were exposed to vehicle (DMSO), mesalamine or Compound XXXV. Concentrations ranging from 0.1 to 10 μM were tested, with each concentration tested in 6 wells. At the end of 72 h of exposure to the test drugs, cell viability was measured using the MTT [3-(4,5-dimethylthiaxol-2-yl)-2,5-diphenyltetrazolium bromide] assay (Carmichael et al. (1978) Cancer Res. 47, 936-942), incorporated herein by reference.

[6] = system: colonic smooth muscle; experiment: Rat colorectal distension, intrarectal pressure / compliance of the colo-rectum; assay type: in vivo; conditions: 100 mg/kg i.p.; FIG. 16(b)
Excerpt: In the testing day, rats were sedated with ether inhalation and a 2 cm long latex balloon was inserted intrarectally 2 cm from the anal verge and fixed at the base of the tail. The balloon was connected via a double-barreled cannula to a pressure transducer to continuously monitoring the rectal pressure by a computer (PowerLab PC, A.D. Instruments, Milford, Mass., USA) and to a syringe for inflation/deflation of the balloon. The rats were then housed in a small cage (20×8×8 cm) on an elevated Plexiglas™ platform and allowed to wake up and adapt for 1 hour. After recovery from sedation, animals underwent the CRD procedure and behavioral responses were tested. The night before the experiments, the balloons were inflated and left overnight so the latex stretched and the balloons became compliant. CRD of 20 seconds, performed every 5 minutes, was applied in increment of 0.4 ml starting from 0.4 ml up to 1.6 ml water. […] Behavioral responses during the first and the second set of CRD were assessed and compared. To determine the effect of mesalamine or Compound XXXV on colonic smooth muscle, the compliance of the colo-rectum during CRD was obtained from intracolo-rectal volume and pressure and expressed as mL/mmHg. […]

[7] = H2S generation in buffer, liver homogenate and liver homogenate with PAG, sulfide sensitive electrode; assay type: in vitro ADME, rat; conditions: 1 mM compound, FIG. 21

Nc1ccc(O)c(C(=O)Oc2ccc(-c3cc(=S)ss3)cc2)c1 [Compound XXXV, 5-Amino-2-hydroxy-benzoic acid 4-(5-thioxo-5H-[1,2]dithiol-3-yl)-phenyl ester]
Disease Activity Index ([1]; Compound XXXV 130 mg/kg vs mesalamine 50 mg/kg, ADT-OH 80 mg/kg and their mixture, FIG. 3): almost twice as effective as either mesalamine alone, ADT-OH alone or a mixture of mesalamine and ADT-OH
Every endpoint of FIGS. 7-14 (MPO activity, disease activity score, colonic mRNA expression) ([1]; dose equimolar to 50 mg/kg mesalamine): superior to mesalamine in every endpoint
Disease activity score ([1]; dose-ranging, oral every 12 h for 5 days, equimolar doses of 50 mg/kg and 75 mg/kg mesalamine, FIG. 1): superior to mesalamine in reducing the activity score
Expression of IL-10 mRNA [2]: did not suppress expression of IL-10 mRNA
COX-2 mRNA expression [3]: suppressed
eNOS mRNA expression [4]: suppressed
viability at 72 h, 0.1 µM ([5]; 0.1 μM): 88.4 ± 2.9%
viability at 72 h, 1 µM ([5]; 1 μM): 87.3 ± 2.3%
viability at 72 h, 10 µM ([5]; 10 μM): 79.6 ± 1.9%
Intrarectal pressure [6]: successfully reduced intrarectal pressure
Effect of PAG (DL-propargylglycine) on H2S generation in liver homogenate ([7]; PAG 2 mM, inhibitor of cystathionine γ-lyase): lack of effect
H2S release in buffer ([7]; potassium phosphate buffer pH 7.4, 37° C.): release H2S spontaneously (in buffer)
H2S release in liver homogenate compared with buffer ([7]; rat liver homogenate 10% (wt/vol)): greater when in the presence of tissue
